Laboratory results from ChEMBL document CHEMBL1201862, “PubChem BioAssay data set” (2004).
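Following 48 hours of exposure in 96-well plates, responses at five concentrations were used to interpolate endpoints linearly. GI50 = concentration required for 50% inhibition of growth.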 Active and inactive are the calls of the source. No stated cut-off is given here; in the data, active = GI50 up to about 1.1 µM and inactive = higher.

Legend:
Assay in all cases: NCI anticancer screen, dose series, 48 h
RXF 393 = system: RXF 393
ACHN = system: ACHN
SF-268 = system: SF-268
T47D = system: T47D
OVCAR-8 = system: OVCAR-8
HCT-116 = system: HCT-116
MDA-MB-435 = system: MDA-MB-435
HOP-92 = system: HOP-92
NCI-H226 = system: NCI-H226
CAKI-1 = system: CAKI-1
BT-549 = system: BT-549
COLO 205 = system: COLO 205
TK-10 = system: TK-10
U-251 = system: U-251
PC-3 = system: PC-3
NCI-H522 = system: NCI-H522
DU-145 = system: DU-145
M14 = system: M14
EKVX = system: EKVX
SN12C = system: SN12C
SR = system: SR
A549 = system: A549
OVCAR-4 = system: OVCAR-4
LOX IMVI = system: LOX IMVI
MDA-MB-231 = system: MDA-MB-231
SNB-75 = system: SNB-75
SW-620 = system: SW-620
K562 = system: K562
OVCAR-5 = system: OVCAR-5
IGROV-1 = system: IGROV-1
786-0 = system: 786-0
SK-MEL-5 = system: SK-MEL-5
HOP-62 = system: HOP-62
UO-31 = system: UO-31
NCI/ADR-RES = system: NCI/ADR-RES
SNB-19 = system: SNB-19
SF-539 = system: SF-539
SK-OV-3 = system: SK-OV-3
HCC 2998 = system: HCC 2998
UACC-62 = system: UACC-62
HCT-15 = system: HCT-15
SK-MEL-28 = system: SK-MEL-28
MCF7 = system: MCF7
KM12 = system: KM12
MOLT-4 = system: MOLT-4
UACC-257 = system: UACC-257
SF-295 = system: SF-295
CCRF-CEM = system: CCRF-CEM
NCI-H460 = system: NCI-H460
Hs-578T = system: Hs-578T
RPMI-8226 = system: RPMI-8226
HT-29 = system: HT-29
HL-60 = system: HL-60
Malme-3M = system: Malme-3M
SK-MEL-2 = system: SK-MEL-2
A498 = system: A498
NCI-H23 = system: NCI-H23
OVCAR-3 = system: OVCAR-3
MDA-N = system: MDA-N

`N#C/C(=C\c1ccccc1)c1nc(-c2cc3ccccc3oc2=O)cs1` was tested, and the GI50 (RXF 393) was > 100 µM (inactive), the GI50 (ACHN) was 38.6 µM (inactive) and the GI50 (SF-268) was 60 µM (inactive). For the same compound, the GI50 (T47D) was > 100 µM (inactive), the GI50 (OVCAR-8) was > 100 µM (inactive) and the GI50 (HCT-116) was > 100 µM (inactive). The GI50 (MDA-MB-435) was > 100 µM (inactive), the GI50 (HOP-92) was 32.1 µM (inactive) and the GI50 (NCI-H226) was > 100 µM (inactive). The GI50 (CAKI-1) was > 100 µM (inactive), the GI50 (BT-549) was 27.3 µM (inactive) and the GI50 (COLO 205) was > 100 µM (inactive). The GI50 (TK-10) was 45.2 µM (inactive), the GI50 (U-251) was 41.6 µM (inactive) and the GI50 (PC-3) was > 100 µM (inactive). For the same compound, the GI50 (NCI-H522) was > 100 µM (inactive), the GI50 (DU-145) was > 100 µM (inactive) and the GI50 (M14) was > 100 µM (inactive). The GI50 (EKVX) was 71.3 µM (inactive), the GI50 (SN12C) was > 100 µM (inactive) and the GI50 (SR) was > 100 µM (inactive). The GI50 (A549) was > 100 µM (inactive), the GI50 (OVCAR-4) was 41.5 µM (inactive) and the GI50 (LOX IMVI) was > 100 µM (inactive). The GI50 (MDA-MB-231) was 71.3 µM (inactive), the GI50 (SNB-75) was 39.3 µM (inactive) and the GI50 (SW-620) was > 100 µM (inactive). The GI50 (K562) was > 100 µM (inactive), the GI50 (OVCAR-5) was > 100 µM (inactive) and the GI50 (IGROV-1) was 48.5 µM (inactive). For the same compound, the GI50 (786-0) was 53.5 µM (inactive), the GI50 (SK-MEL-5) was > 100 µM (inactive) and the GI50 (HOP-62) was 30.9 µM (inactive). For the same compound, the GI50 (UO-31) was 93.1 µM (inactive), the GI50 (NCI/ADR-RES) was > 100 µM (inactive) and the GI50 (SNB-19) was 74.3 µM (inactive). The GI50 (SF-539) was 58.5 µM (inactive), the GI50 (SK-OV-3) was 72.8 µM (inactive) and the GI50 (HCC 2998) was > 100 µM (inactive). The GI50 (UACC-62) was 43.1 µM (inactive), the GI50 (HCT-15) was > 100 µM and the GI50 (SK-MEL-28) was > 100 µM (inactive). The GI50 (MCF7) was > 100 µM (inactive), the GI50 (KM12) was 75.3 µM (inactive) and the GI50 (MOLT-4) was > 100 µM (inactive). The GI50 (UACC-257) was > 100 µM (inactive), the GI50 (SF-295) was > 100 µM (inactive) and the GI50 (CCRF-CEM) was > 100 µM (inactive). For the same compound, the GI50 (NCI-H460) was > 100 µM (inactive), the GI50 (Hs-578T) was 48 µM (inactive) and the GI50 (RPMI-8226) was > 100 µM (inactive). The GI50 (HT-29) was > 100 µM (inactive), the GI50 (HL-60) was > 100 µM (inactive) and the GI50 (Malme-3M) was > 100 µM (inactive). For the same compound, the GI50 (SK-MEL-2) was > 100 µM (inactive).
With `O=C(O)c1cnc2[nH]ccn2c1=O` the GI50 (ACHN) was > 100 µM (inactive), the GI50 (SF-268) was > 100 µM (inactive) and the GI50 (T47D) was > 100 µM (inactive). For the same compound, the GI50 (A498) was > 100 µM (inactive), the GI50 (NCI-H23) was > 100 µM (inactive) and the GI50 (OVCAR-8) was > 100 µM (inactive). The GI50 (HCT-116) was > 100 µM (inactive), the GI50 (MDA-MB-435) was > 100 µM (inactive) and the GI50 (HOP-92) was > 100 µM (inactive). For the same compound, the GI50 (NCI-H226) was > 100 µM (inactive), the GI50 (BT-549) was > 100 µM (inactive) and the GI50 (COLO 205) was > 100 µM (inactive). For the same compound, the GI50 (TK-10) was > 100 µM (inactive), the GI50 (U-251) was > 100 µM (inactive) and the GI50 (PC-3) was > 100 µM (inactive). For the same compound, the GI50 (DU-145) was > 100 µM (inactive), the GI50 (M14) was > 100 µM (inactive) and the GI50 (EKVX) was > 100 µM (inactive). For the same compound, the GI50 (SN12C) was > 100 µM (inactive), the GI50 (SR) was > 100 µM (inactive) and the GI50 (A549) was > 100 µM (inactive). For the same compound, the GI50 (OVCAR-4) was > 100 µM (inactive), the GI50 (MDA-MB-231) was > 100 µM (inactive) and the GI50 (SNB-75) was > 100 µM (inactive). For the same compound, the GI50 (SW-620) was > 100 µM (inactive), the GI50 (K562) was > 100 µM (inactive) and the GI50 (OVCAR-5) was > 100 µM (inactive). For the same compound, the GI50 (IGROV-1) was > 100 µM (inactive), the GI50 (786-0) was > 100 µM (inactive) and the GI50 (SK-MEL-5) was > 100 µM (inactive). For the same compound, the GI50 (HOP-62) was > 100 µM (inactive), the GI50 (UO-31) was > 100 µM (inactive) and the GI50 (NCI/ADR-RES) was > 100 µM (inactive). The GI50 (SNB-19) was > 100 µM (inactive), the GI50 (SK-OV-3) was > 100 µM (inactive) and the GI50 (HCC 2998) was > 100 µM (inactive). The GI50 (UACC-62) was > 100 µM (inactive), the GI50 (HCT-15) was > 100 µM and the GI50 (SK-MEL-28) was > 100 µM (inactive). For the same compound, the GI50 (MCF7) was > 100 µM (inactive), the GI50 (MOLT-4) was > 100 µM (inactive) and the GI50 (UACC-257) was > 100 µM (inactive). The GI50 (OVCAR-3) was > 100 µM (inactive), the GI50 (SF-295) was > 100 µM (inactive) and the GI50 (CCRF-CEM) was > 100 µM (inactive). The GI50 (MDA-N) was > 100 µM (inactive), the GI50 (NCI-H460) was > 100 µM (inactive) and the GI50 (RPMI-8226) was > 100 µM (inactive). For the same compound, the GI50 (HT-29) was > 100 µM (inactive), the GI50 (HL-60) was > 100 µM (inactive) and the GI50 (Malme-3M) was > 100 µM (inactive).
